# Assay results published in US5364764A, “Fluorescent chloramphenicol derivatives for determination of chloramphenicol acetyltransferase activity” (Molecular Probes, Inc., priority 1992, dated 1994).
# Key:
# [1] = molecular target: T1, purified CAT (chloramphenicol acetyltransferase) (Escherichia coli, UniProt P62577); assay: Relative velocity vs chloramphenicol; type: biochemical; conditions: first ten minutes, substrate 33.2 μM, TRIS pH 7.4, 0.4 mg Acetyl CoA, 0.8U purified enzyme
# T1 construct: the pSV2cat reporter type
# Procedure: The velocity during the first ten minutes at a substrate concentration of 33.2 μM was determined using Compound 6 and ^14 C chloramphenicol. The reactions were run in 100 μL final volume TRIS pH 7.4 with 0.4 mg of Acetyl CoA and 0.8U of purified enzyme. The concentrations of acetylated products after ten minutes were determined by extraction from the TLC plates and measuring spectrophotometrically, in the case of Compound 6, and by counting radioactivity in the case of ^14 C chloramphenicol. The velocity during the first ten minutes was assumed to be very close to Vmax. The velocity of Compound 6 was 0.66 of the velocity of ^14 C chloramphenicol.
# [2] = molecular target: T1, purified CAT (chloramphenicol acetyltransferase); assay: Procedure for comparing activity of fluorescent substrates (TLC, conversion to acetylated products); type: biochemical; conditions: 0.8 U purified CAT, acetyl CoA, 1M TRIS pH 7.4, 37° C., 1 hour
# Procedure: To a solution of 0.5 mg acetyl CoA in 112 μL of 1M TRIS pH 7.4 was added 7 μL of a solution of 440 μM fluorescent CAT substrate in ethanol. Then 0.8 U of purified CAT in 1 μL of 1 M TRIS (pH 7.4) was added and the solution was incubated at 37° C. for 1 hour. The reaction mixture was extracted with 0.7 mL of ethyl acetate, and the solvent was removed under vacuum. The residue was dissolved in 14 μL of ethyl acetate, spotted on the pre-absorbent area of Whatman LK6 silica-gel TLC plates and developed with 10% methanol in chloroform. A control, run as above but with no enzyme present, was spotted adjacent to each reaction mixture.
# Qualitative estimates of substrate activity of each fluorescent derivative were made by examination of the plates for conversion to acetylated products.
# [3] = Solubility in aqueous and nonaqueous solvents; type: physicochemical; conditions: compared with the corresponding fluorescein derivative 36
# [4] = system: chloramphenicol acetyltransferase (CAT); conditions: reported by Shaw et al., J. Biol. Chem. 242(4):687 (1967); read-out: Km (Michaelis-Menten constant) for chloramphenicol; cited from earlier work
# T1 sequence (P62577 whole entry, looked up): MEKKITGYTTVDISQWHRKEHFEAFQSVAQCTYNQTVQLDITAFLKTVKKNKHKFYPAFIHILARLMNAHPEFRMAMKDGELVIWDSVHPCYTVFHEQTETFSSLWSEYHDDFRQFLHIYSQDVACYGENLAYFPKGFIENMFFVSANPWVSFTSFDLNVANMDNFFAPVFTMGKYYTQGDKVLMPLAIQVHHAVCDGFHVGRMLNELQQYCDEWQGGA
Compound,Velocity relative to the velocity of 14C chloramphenicol [1],"Qualitative estimate of substrate activity (reaction velocity, conversion to acetylated products) [2]",Solubility in ethyl acetate [3],Km [4] [µM]
CC(=O)Nc1ccc([C@@H](O)[C@@H](CO)NC(=O)CCCNC(=O)CC2=CC(C)=[N+]3C2=Cc2c(C)cc(C)n2[B-]3(F)F)cc1 [Compound 6],0.66,highest reaction velocities,much more soluble in ethyl acetate,–
O=C(N[C@H](CO)[C@H](O)c1ccc([N+](=O)[O-])cc1)C(Cl)Cl [chloramphenicol],–,–,–,~15
CC(=O)Nc1ccc([C@@H](O)[C@@H](CO)NC(=O)CCCNC(=O)Cc2cc(=O)oc3cc(N(C)C)ccc23)cc1 [Compound 23],–,highest reaction velocities,–,–
Nc1ccc([C@@H](O)[C@@H](CO)NC(=O)CCCCCNc2ccc([N+](=O)[O-])c3nonc23)cc1 [Compound 28],–,highest reaction velocities,–,–
CN(C)c1ccc2c(CC(=O)NCCCC(=O)N[C@H](CO)[C@H](O)c3ccc([N+](=O)[O-])cc3)cc(=O)oc2c1 [Compound 21],–,highest reaction velocities,–,–
